Test results from patent US7989631B2, “Hydrate forms of AMG706” (Amgen Inc., priority 2006, dated 2011).

Columns and labels:
[1] = Conversion of anhydrous diphosphate salt to monophosphate hydrate salt in water; assay type: physicochemical; settings: in the presence of water or aqueous co-solvent mixtures
Description: The anhydrous diphosphate sale of AMG 706 is currently manufactured as a crystalline form. This crystalline form is used in the table formulations for clinical trials.
The monophosphate dihydrate salt was isolated and characterized by various analytical tools for its physico-chemical properties. Interconversion kinetics of anhydrous diphosphate to monophosphate dihydrate was studied under various conditions.

[2] = Solubility of AMG 706 anhydrous diphosphate salt in water over time; assay type: physicochemical; settings: thermodynamic from solid
Method: AMG 706 anhydrous diphosphate (˜100 mg) salt was added to 2 mL of water and placed on a rotator stirrer. Multiple runs were performed each at different temperatures between about room temperature to about 40° C. Solid was isolated at various time points by vacuum filtering the supernatant and the material was air-dried overnight.

SMILES: CC1(C)CNc2cc(NC(=O)c3cccnc3NCc3ccncc3)ccc21 [AMG 706 anhydrous diphosphate, N-(2,3-dihydro-3,3-dimethyl-1H-indol-6-yl)-2-[(4-pyridinylmethyl)amino]-3-pyridinecarboxamide]
- Solid-form stability (disproportionation/conversion) [1]: can disproportionate and convert to a more stable monophosphate hydrate salt
- solubility at 0.5 hr ([2]; time 0.5 hr, RT, pH 2.6): 22 mg/mL
- solubility at 1 hr ([2]; time 1.0 hr, RT, pH 2.7): 21 mg/mL
- solubility at 3 hr ([2]; time 3.0 hr, RT, pH 2.7): 21 mg/mL
- solubility at 6 hr ([2]; 40 C, pH 2.6): 20 mg/mL
- solubility at 6 hr ([2]; RT, pH 2.6): 21 mg/mL
- solubility at 24 hr ([2]; 40 C, pH 3.0): 26 mg/mL
- solubility at 24 hr ([2]; RT, pH 2.9): 21 mg/mL
